The values below come from PubChem BioAssay (NCI).

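Exposure lasted 48 hours, with cells grown in 96-well plates and compounds tested at five concentrations. At the TGI there is no net growth.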

What all share (experiment): inhibition of tumour cell growth, NCI panel, 48 h
In test [1] the test system is UACC-62 melanoma.
The test system of test [2] is CCRF-CEM leukemia.
Test [3] relates to KM12 colon.
Test [4] has as its system UACC-257 melanoma.
The subject of test [5] is SF-268 CNS.
In test [6] the test system is ACHN renal.
The subject of test [7] is NCI/ADR-RES ovarian.
In test [8] the test system is K-562 leukemia.
Test [9] concerns COLO 205 colon.
Test [10] relates to SW-620 colon.
The test system of test [11] is UO-31 renal.
The test system of test [12] is SF-539 CNS.
The subject of test [13] is MOLT-4 leukemia.
For test [14], the system named is OVCAR-8 ovarian.
In test [15] the test system is RXF 393 renal.
Test [16] deals with HL-60(TB) leukemia.

Turning to `O=C1Cc2c([nH]c3ccc(Br)cc23)-c2cc(Br)ccc2N1`, the TGI in test [1], in test [2], in [3], in test [4], in test [5] and in test [6] was over 100 µM in each case. In addition, the TGI in test [7], in test [8], in [9], in test [10], in test [11] and in test [12] was over 100 µM in each case. Moreover, the TGI in test [13] and in test [14] was over 100 µM in each case.

On to `Cc1cccc(N/C(=C(/C(Cl)=C(Cl)Cl)[N+](=O)[O-])n2nnc3ccccc32)c1`, for which the TGI was 37 µM in test [1]; over 100 µM in test [2]; 29.3 µM in [3]; 49.3 µM in test [4]; 31.1 µM in test [5]; 63.1 µM in test [6]. Further, the TGI in test [7] is 49.4 µM; in [8], over 100 µM; in test [9], 32.8 µM; in [10] it was 29.2 µM; in test [11], 31 µM; in test [12], 32 µM. The TGI was over 100 µM in [13] and 31.1 µM in test [14].

For the compound `COc1cc2c(/C=C3/C(=O)Nc4ccc(O)cc43)c(Cl)n(Cc3ccccc3)c2cc1C`, the TGI in test [1] was over 41.9 µM; in test [2], over 100 µM; in test [3] it was 1.35 µM; in test [4] it was over 56.5 µM; in [5], 24.9 µM; in test [6], 35.3 µM. For the same compound, the TGI in test [7] is 2.6 µM; in test [8] it was over 100 µM; in [10], 19.9 µM; in test [11], over 100 µM; in test [12] it was 3.8 µM; in test [13], over 100 µM. The TGI in test [14] stood at 12.2 µM; in test [15], 5.06 µM.

As for `CC1=CC[C@H](C[C@H](C#CCCCC2OCCO2)O[Si](C(C)C)(C(C)C)C(C)C)C(=O)CC1`, the TGI in [1], in test [2], in test [3], in test [4], in [5] and in test [6] was over 100 µM in each case. For the same compound, the TGI in test [7], in test [8], in test [9], in test [10], in test [11] and in test [13] was over 100 µM in each case. The TGI in [14] and in test [15] was over 100 µM each time.

On to `CCCCCCCC(CC(=O)NC(CO)C(=O)NC(CO)CC(C)C)OC(=O)CC(CCCCCCC)OC(=O)CC(CCCCCCC)OC1OC(C)C(O)C(OC2OC(C)C(O)C(OC(C)=O)C2O)C1O` (stereo not drawn), for which the TGI in [1] was determined as 25.8 µM; in [2], 21.4 µM; in [3], 22.1 µM; in test [4], 18.5 µM; in test [16] it was 23.4 µM; in test [5], 25.9 µM. In addition, the TGI in test [6] amounted to 31.4 µM; in test [8], 31.4 µM; in test [9] it was 18.9 µM; in [10], 28.8 µM; in test [11], 28.3 µM; in test [12] it was 24.5 µM. The TGI in [13] was found to be 16.8 µM; in test [14], 28.3 µM; in test [15], 20.9 µM.

For the compound `Cc1ccc(-c2c(C#N)c(-c3ccccc3)n(NS(=O)(=O)c3ccc(C)cc3)c(=O)c2C#N)cc1`, the TGI is over 100 µM in [1]; 80.3 µM in test [2]; over 100 µM in test [3]; over 100 µM in test [4]; over 100 µM in test [5]; over 100 µM in test [6]. Further, the TGI in test [7] is over 100 µM; in test [8], over 100 µM; in test [9] it was over 100 µM; in test [10], over 100 µM; in test [12] it was over 100 µM; in [13] it was 54.5 µM. Besides, the TGI in test [14] and in test [15] was over 100 µM each time.

`Cc1cn(C2OC(CO[Si](C)(C)C(C)(C)C)/C(=C\C#N)C2O[Si](C)(C)C(C)(C)C)c(=O)[nH]c1=O` (stereo not drawn): the TGI in test [1], in [2], in test [3], in test [4], in test [5] and in [6] was over 100 µM throughout. Moreover, the TGI in [7] was over 100 µM; in test [8] it was over 100 µM; in [9] it was over 100 µM; in [10], over 100 µM; in test [11] it was over 100 µM; in [12], 97.1 µM. The values for the TGI in test [13] and in [15] were over 100 µM and 92 µM, respectively.

Take `COc1cc2c(cc1OCCCNC(=O)c1cc3ccccc3[nH]1)N=C[C@@H]1CCCN1C2=O`: the TGI in [1] is 0.705 µM; in test [2], over 100 µM; in test [3], 1.84 µM; in test [4], over 66.4 µM; in test [5], 0.237 µM; in [6], over 100 µM. In addition, the TGI in test [7] is 9.99 µM; in test [8], over 100 µM; in test [10] it was over 100 µM; in [11], over 100 µM; in [12], 0.539 µM; in test [13], over 100 µM. The compound further returned a TGI in test [14] of 3.64 µM.

For the compound `Cc1c2c(cc3c1C(=O)C(=O)C([C@@H](C)CO)=C3O)C(C)(C)CCC2`, the TGI in test [1] was over 100 µM; in test [2], 40.7 µM; in test [3], 34.2 µM; in [4], over 100 µM; in test [5], over 100 µM; in [7], over 100 µM. In addition, the TGI in [8] was over 100 µM; in test [9] it was over 100 µM; in test [10], over 100 µM; in [11] it was 38.6 µM; in test [13] it was 93.2 µM; in test [14], over 100 µM. In test [15], this compound displayed a TGI of 92.3 µM.

As for `CCSc1nnc(Sc2c3ccccc3nc3ccccc23)s1`, the TGI in [1] was 31.6 µM; in [2] it was over 100 µM; in test [3], 77.8 µM; in [4] it was 23.6 µM; in [5], over 56.4 µM; in [6], 17.7 µM. The TGI is over 64.2 µM in test [7]; over 100 µM in test [8]; 7.01 µM in [9]; over 40.8 µM in [10]; 23.7 µM in [11]; 21.9 µM in test [12]. Moreover, the TGI in test [13] was 6.25 µM; in [14], over 51.5 µM; in test [15], 35.3 µM.

For the compound `O=C(CC(O)(C(F)(F)F)C(F)(F)F)C(c1ccccc1)C(O)(C(F)(F)F)C(F)(F)F` (stereo not drawn), the TGI is over 100 µM in test [1]; over 100 µM in test [2]; over 100 µM in test [3]; over 100 µM in test [4]; 79.5 µM in test [6]; over 100 µM in [7]. Further, the TGI in [8] was over 100 µM; in test [9], over 100 µM; in test [10], over 100 µM; in test [11], over 100 µM; in [12], 94.1 µM; in test [13], over 100 µM. The TGI in test [14] is over 100 µM; in test [15] it was 25.2 µM.

As for `CN(CCC(=O)N1CC(CCl)c2ccc([N+](=O)[O-])cc21)CCC(=O)N1CC(CCl)c2ccc([N+](=O)[O-])cc21` (stereo not drawn), the TGI was 24.7 µM in [1]; over 100 µM in [2]; 18.3 µM in test [3]; 21.6 µM in test [4]; 28.5 µM in test [5]; 2.91 µM in test [6]. The TGI came to 47.7 µM in [8]; 31.6 µM in [9]; 29 µM in test [10]; 27.7 µM in test [12]; 24.2 µM in test [13]; 37.6 µM in test [14].

Take `COc1cc(C2C3=C(COC3=O)OC(C)(C)Oc3cc4c(cc32)OCO4)cc(OC)c1O` (stereo not drawn): the TGI is over 100 µM in test [2]; over 44.5 µM in test [3]; over 100 µM in test [4]; 1.49 µM in test [16]; over 100 µM in test [5]; over 100 µM in [6]. For the same compound, the TGI in [8] was over 20.3 µM; in test [9], 6.68 µM; in test [10], over 31.3 µM; in test [11], over 100 µM; in test [13], over 100 µM; in [14] it was over 100 µM. The compound further had a TGI in [15] of 0.552 µM.

With `CCCCNC(=S)Nc1nc(C(=O)NNC(=S)NCC)cs1`, the TGI in test [1], in test [2], in [3], in test [4], in test [5] and in test [6] was over 100 µM in each case. The TGI in test [7], in test [9], in [10], in test [11], in [12] and in [13] was over 100 µM each time. The compound further showed a TGI in test [14] of over 100 µM.

Turning to `O=[N+]([O-])/C(C(Cl)=C(Cl)Cl)=C1\Nc2ccc([N+](=O)[O-])cc2N1`, the TGI is over 100 µM in test [1]; 56.2 µM in [2]; over 100 µM in [3]; over 100 µM in [4]; over 100 µM in test [5]; over 100 µM in [6]. Further, the TGI in test [7] is over 100 µM; in test [8], over 100 µM; in test [9], over 100 µM; in test [11] it was 27.5 µM; in [13], over 100 µM.
